Experimental data reported in US10690673B2, “Method of treating cancer metastasis by CDK 4/6 inhibitors” (Mayo Foundation for Medical Education and Research, priority 2016, dated 2020).
Where a SMILES comes first, the peptide text is derived from it. The star is where a group is joined. Cbz = O=C(OCc1ccccc1)*

Columns and labels:
[1] = tested on: SNAIL1 polypeptide; test: SNAIL1 polypeptide level by Western blotting in breast cancer cells; type: cell-based, human; details: for SNAIL1 polypeptide level: 0, 3, 6, or 9 μM for 18 hours
Procedure: FIG. 3. DUB3 deubiquitinates and stabilizes SNAIL1. (A) Cell extracts were prepared from 4 luminal and 4 basal like subtypes of human breast cancer cell lines, and expression of SNAIL1, DUB3, E-cadherin and vimentin was analyzed by Western blotting. (B) MDA-MB-231 cells stably expressing control or DUB3 shRNAs were generated and Western blot was performed with the indicated antibodies. (C) Total RNA was isolated from cells in (B). mRNAs encoding SNAIL and β-actin were determined by reverse transcription-polymerase chain reaction (RT-PCR) and agarose gel electrophoresis. (D) MDA-MB-231 cells stably expressing control or DUB3 shRNAs were treated with vehicle or MG-132 (10 μM) for 1 hour and Western blot was performed with the indicated antibodies. (E-F) T47D and MCF-7 cells were infected with virus containing vector (“V”), FLAG-DUB3 (“WT”) and the C89S (“CS”) mutant, and Western blots were performed. (F) CHX pulse-chase assay was performed in cells. (G) Cells were cotransfected with indicated plasmids and treated with MG132 for 6 hours before cell lysates were boiled and immunoprecipitated with HA beads, and the polyubiquitylated SNAIL1 polypeptide was detected by an anti-ubiquitin antibody. (H) Cells were transfected with HA-SNAIL1 and treated with MG132 for 6 hours. Cell lysates were boiled and immunoprecipitated with HA beads and incubated with GST, GST-DUB3 or GST-DUB3 C89S mutant. The polyubiquitylated SNAIL1 polypeptide was detected by an anti-ubiquitin antibody.
FIG. 10. Ser41 phosphorylation regulates DUB3 activity. (A) Cells transfected with indicated constructs were lysed and co-immunoprecipitations experiments were performed using anti-FLAG antibody. The immunoprecipates were eluted by FLAG-peptide containing buffer and the activities of DUB3 were assayed using Ubiquitin-AMC (Ub-AMC) as a substrate. (B) The eluates were detected with anti-FLAG antibody. (C) MDA-MB-231 cells were treated with either vehicle or […] for indicated periods. Western blotting was performed with indicated antibodies.
FIG. 11. Phosphorylation of Ser41 regulates DUB3 activity. (A) Cells were cotransfected with indicated plasmids and treated with vehicle or CDK 4/6 inhibitor (PD0332991 10 μM). Cell lysates were boiled and immunoprecipitated with HA beads and immunoblotted as indicated. […] (G) The migratory abilities of cells were analyzed by a wound healing assay. […] After 12 weeks, mice were sacrificed and the development of lung metastases was determined by counting and quantifying lung metastatic nodules.
FIG. 14. […] (B) MDA-MB-231 cells were treated with vehicle or LY2835219 and the migration ability of cells was measured by a wound healing assay. […] (D) HCC1806 cells were treated with vehicle or LY2835219 and the migration ability of cells was measured by a wound healing assay. […]

[2] = tested on: phosphorylation of DUB3 at Ser41; test: Phosphorylation of DUB3 at Ser41 in transfected cells (anti-FLAG immunoprecipitation, Western blotting); type: cell-based; details: cells transfected with FLAG-DUB3 WT
Procedure: FIG. 8. CDK 4/6 phosphorylates DUB3 at Ser 41. (A) DUB3 phosphorylation sites were analyzed by mass spectrometry. If the Ascore values for Ascore Seq_A are above 19, then the location is considered confidently assigned (indicated with pink cell backgrounds). (B) Cells were transfected with indicated plasmids and cell lysates were subjected to immunoprecipitation with an anti-FLAG antibody and Western blotting was performed. (C) Cells were transfected with indicated plasmids and were treated with vehicle, or pan-CDK inhibitor (Roscovitine 5 μM) or CDK 4/6 inhibitor (PD0332991 10 μM). The phosphorylation of Ser41 was examined. (D) CDK 4/6 phosphorylates DUB3 in vitro. Bacterially expressed GST and GST-DUB3 fusion polypeptides were incubated with active CDK4 or CDK6 in the presence of [γ-32P]ATP. Polypeptides were resolved by SDS-PAGE, and phosphorylated polypeptides were visualized with autoradiography. (E) Vector or FLAG-DUB3 were transfected in cells stably expressing indicated shRNA. The phosphorylation of Ser41 in DUB3 was then examined.
FIG. 15. CDK1 phosphorylates DUB3 at Ser41 in vitro, and the treatment of pan-CDK inhibitor Roscovitine decreased phosphorylation of DUB3. (A) Bacterially-expressed GST-DUB3 WT and GST-DUB3 S41A fusion polypeptides were incubated with active CDK4, CDK6, CDK1, or CDK2 in the presence of [γ-^32P]ATP. […]

[3] = tested on: human breast tumor biopsy sample HCI001; test: Patient-derived xenograft (PDX) model of triple negative breast cancer, tumor growth and metastasis; type: in vivo, mice; details: 100 mg/kg daily, PO, five weeks; saline group 6/8; significantly decreased
Procedure: FIG. 13. CDK 4/6 inhibition inhibits cancer metastasis. (A) DUB3 and SNAIL1 polypeptide levels in a subset of human breast tumor biopsy samples were examined. (B) Passage 3 tumors from HCI001 were used to test the effect of PD0332991 on metastasis. When primary tumors reached 100-150 mm^3, mice were randomized and treated either with saline or PD0332991 for five weeks (n=8). Tumor weights were measured after mice were sacrificed (B). Tumor volumes were measured every week (C). After mice were sacrificed, liver (D-F) and lung (G-I) metastatic nodules were examined macroscopically or detected in paraffin-embedded sections stained with H&E. (J) The working model to illustrate that CDK 4/6 phosphorylation-dependent activation of DUB3 regulates EMT and metastasis through SNAIL1.
The results provided herein indicate that DUB3 stabilizes SNAIL1 polypeptide through deubiquitinating SNAIL1 and CDK 4/6 activity is involved in SNAIL1 stabilization. […] DUB3 and SNAIL1 levels were detected and correlated in a subset of human breast cancer samples from the BEAUTY project (FIG. 13A). […]
A patient-derived xenograft model was generated from an estrogen receptor-negative, progesterone receptor-negative, human epidermal growth factor receptor 2-negative (ER^−PR^−_HER2^−) high-grade invasive ductal carcinoma. […] Tumor volumes were measured once per week. […] Data were analyzed using Student's t test. […]

Question: For `Nc1nc(N)c(N=O)c(OCC2CCCCC2)n1` [DU6027], which SNAIL1 polypeptide level ([1]; BT549 cells, FIG. 16) is on record?
Answer: decreases

Question: What about the SNAIL1 polypeptide level ([1]; MDA-MB-231 cells, FIG. 17) of the same compound?
Answer: decreases

Question: For `CC[C@H](CO)Nc1nc(NCc2ccccc2)c2ncn(C(C)C)c2n1` [Roscovitine], which “phosphorylation of DUB3 at Ser41” value ([2]; Example 11, FIG. 15B, concentration not given) is on record?
Answer: dramatically reduced

Question: And the “phosphorylation of DUB3 at Ser41” value ([2]; Roscovitine 5 μM, FIG. 8C)?
Answer: dramatically reduced

Question: With `CC(C)C[C@@H](C=O)NC(=O)[C@H](CC(C)C)NC(=O)[C@H](CC(C)C)NC(=O)OCc1ccccc1` [MG-132] (Cbz-Leu-Leu-Leu-aldehyde) as the compound, how does the “effect on decreased SNAIL1 polypeptide level in cells depleting DUB3” value ([1]; MDA-MB-231 cells stably expressing DUB3 shRNAs, MG-132 10 μM for 1 hour, FIG. 3D) read?
Answer: rescue

Question: What about the “effect on PD0332991-induced reduction of SNAIL1 polypeptide level” value ([1]; MDA-MB-231 cells, PD0332991 in the presence of MG-132, FIG. 11D) of the same compound?
Answer: reversed

Question: What does the source list for `CC(=O)c1c(C)c2cnc(Nc3ccc(N4CCNCC4)cn3)nc2n(C2CCCC2)c1=O` [PD0332991, Palbociclib]?
Answer: liver metastasis (mice with metastasis / mice in group) [3]: 1/8; lung metastasis (mice with metastasis / mice in group) [3]: 2/8
